Molecular target: Tyrosine-protein kinase SYK (Homo sapiens) (UniProt P43405)
Assay: Inhibition of SYK

Ki: > 4 µM
SMILES: CC(C)C[C@H]1CN(c2ccc(C(F)(F)F)c(C(=O)c3cccnc3N)n2)CCN1

Source: BindingDB's records for doi:10.1016/j.bmcl.2012.05.114 (Vertex Pharmaceuticals, 2012)
